Test [1] has as its target T1, Plasma kallikrein (Homo sapiens, UniProt P03952). As to the kind of experiment: In vitro concentration of compound required to inhibit 50% of Kallikrein.
In test [2] the target is T2, Plasminogen (Homo sapiens, UniProt P00747). Description: In vitro concentration of compound required to inhibit 50% of Plasmin.
In test [3] the target is T3, Serine protease 1 (Bos taurus, UniProt P00760).
T3 sequence (P00760 whole entry): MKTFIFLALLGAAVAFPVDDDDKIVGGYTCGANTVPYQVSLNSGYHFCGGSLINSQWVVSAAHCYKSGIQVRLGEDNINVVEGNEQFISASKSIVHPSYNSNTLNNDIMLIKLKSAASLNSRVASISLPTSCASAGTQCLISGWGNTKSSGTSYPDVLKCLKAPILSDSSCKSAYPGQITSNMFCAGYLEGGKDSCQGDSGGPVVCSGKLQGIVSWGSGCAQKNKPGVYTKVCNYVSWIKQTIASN
Description: In vitro concentration of compound required to inhibit 50% of trypsin.

The target of test [4] is T4, Coagulation factor X (Bos taurus, UniProt P00743). As to the kind of experiment: In vitro concentration of compound required to inhibit 50% of Factor Xa.
T4 sequence (P00743 41-180 limits assumed): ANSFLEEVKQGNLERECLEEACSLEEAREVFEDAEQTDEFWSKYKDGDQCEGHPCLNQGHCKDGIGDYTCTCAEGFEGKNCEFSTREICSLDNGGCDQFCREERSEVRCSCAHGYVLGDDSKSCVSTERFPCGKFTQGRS
T4 sequence (P00743 234-492 limits assumed): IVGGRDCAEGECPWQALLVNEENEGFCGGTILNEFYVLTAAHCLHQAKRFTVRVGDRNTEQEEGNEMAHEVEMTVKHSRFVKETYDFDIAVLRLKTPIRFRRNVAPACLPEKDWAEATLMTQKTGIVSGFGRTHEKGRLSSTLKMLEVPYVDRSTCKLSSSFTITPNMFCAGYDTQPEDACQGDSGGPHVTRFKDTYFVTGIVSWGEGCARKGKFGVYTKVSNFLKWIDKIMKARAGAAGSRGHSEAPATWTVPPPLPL
The nature of test [5]: In vitro concentration of compound required to inhibit 50% of nt-PA. The arrangement: species or system Homo sapiens.
The target of test [6] is Prothrombin (Bos taurus, UniProt P00735).
Description: In vitro concentration of compound required to inhibit 50% of 6 nM thrombin
Test [7] addresses T2, Plasminogen. Description: In vitro concentration of compound required to inhibit 50% of plasmin.
Test [8] addresses T1, Plasma kallikrein. As to the kind of experiment: In vitro concentration of compound required to inhibit 50% of kallikrein.
The target in test [9] is T4, Coagulation factor X. Description: In vitro concentration of compound required to inhibit 50% of factor Xa.

For six compounds, IC50 results are on record in ChEMBL document CHEMBL1126451, “Characterization of LY806303 as a potent and selective inhibitor of thrombin” (Bioorg Med Chem Lett, 1992).

Non-standard residues stand in square brackets, D forms with d. Residues, ends and D or L forms follow the SMILES beside them. dNMePhg = CN[C@@H](C(=O)O)c1ccccc1; NMePhg = CN[C@H](C(=O)O)c1ccccc1

T2 sequence (P00747 97-580 limits assumed): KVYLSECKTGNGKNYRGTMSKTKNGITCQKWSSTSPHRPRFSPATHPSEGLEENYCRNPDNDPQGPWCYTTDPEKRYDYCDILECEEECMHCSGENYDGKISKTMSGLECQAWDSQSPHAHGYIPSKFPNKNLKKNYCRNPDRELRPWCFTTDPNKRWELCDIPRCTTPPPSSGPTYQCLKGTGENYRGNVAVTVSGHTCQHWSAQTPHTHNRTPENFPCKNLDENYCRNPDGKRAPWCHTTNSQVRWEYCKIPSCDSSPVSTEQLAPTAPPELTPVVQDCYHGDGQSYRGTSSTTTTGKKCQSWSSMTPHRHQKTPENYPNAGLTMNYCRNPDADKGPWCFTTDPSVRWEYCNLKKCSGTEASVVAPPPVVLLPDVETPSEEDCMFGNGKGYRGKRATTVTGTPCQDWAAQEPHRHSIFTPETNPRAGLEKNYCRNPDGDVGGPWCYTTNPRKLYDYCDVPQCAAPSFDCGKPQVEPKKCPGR
T2 sequence (P00747 581-810 limits assumed): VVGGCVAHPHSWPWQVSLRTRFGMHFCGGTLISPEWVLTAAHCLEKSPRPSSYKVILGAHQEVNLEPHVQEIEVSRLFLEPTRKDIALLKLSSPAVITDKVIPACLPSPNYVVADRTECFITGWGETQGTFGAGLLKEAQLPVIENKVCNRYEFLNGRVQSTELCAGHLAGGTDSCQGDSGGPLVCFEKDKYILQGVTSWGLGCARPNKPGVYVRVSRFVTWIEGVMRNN
T1 sequence (P03952 20-390 limits assumed): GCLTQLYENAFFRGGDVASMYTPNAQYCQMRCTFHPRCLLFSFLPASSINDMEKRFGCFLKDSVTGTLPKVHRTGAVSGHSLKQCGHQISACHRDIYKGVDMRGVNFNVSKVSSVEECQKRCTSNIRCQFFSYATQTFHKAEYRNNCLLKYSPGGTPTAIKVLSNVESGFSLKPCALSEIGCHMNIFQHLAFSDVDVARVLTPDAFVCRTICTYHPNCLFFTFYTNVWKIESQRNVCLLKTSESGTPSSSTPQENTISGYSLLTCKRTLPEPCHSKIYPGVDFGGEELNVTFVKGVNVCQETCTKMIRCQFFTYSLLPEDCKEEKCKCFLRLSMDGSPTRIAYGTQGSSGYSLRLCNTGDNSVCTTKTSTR
T1 sequence (P03952 391-638 limits assumed): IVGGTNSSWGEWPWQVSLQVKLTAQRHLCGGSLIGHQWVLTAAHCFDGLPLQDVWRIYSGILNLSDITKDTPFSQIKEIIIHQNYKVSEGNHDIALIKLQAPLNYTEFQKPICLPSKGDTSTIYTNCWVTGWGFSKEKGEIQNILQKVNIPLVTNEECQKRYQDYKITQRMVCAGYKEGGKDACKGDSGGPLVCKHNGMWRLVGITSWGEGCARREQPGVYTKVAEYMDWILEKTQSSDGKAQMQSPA

As usually defined, the IC50 is the midpoint of a concentration-inhibition curve. `COC(=O)c1oc2c(sc3ccccc32)c1OC(=O)C(C)C`: the half-inhibitory concentration (IC50) turned out to be 7.2 µM in test [1]; 240 µM in [2]; 29 µM in [3]; 0.1 µM in test [4]; 160 µM in test [5].
In test [6], `COC(=O)c1oc2c(sc3ccccc32)c1OC(=O)N(C)C` displayed an IC50 greater than 10 µM.
In test [6], `COC(=O)c1oc2c(sc3ccccc32)c1O` returned an IC50 greater than 10 µM.
As to `COC(=O)c1oc2c(sc3ccccc32)c1OC`, the IC50 in test [6] was greater than 10 µM.
In test [6], `CN[C@H](C(=O)N1CCC[C@H]1C(=O)N[C@@H](CCCNC(=N)N)C(=O)O)c1ccccc1` (H-[NMePhg]-Pro-Arg-OH) registered an IC50 of 0.02 µM. This counts as double-digit nanomolar.
Turning to `CN[C@@H](C(=O)N1CCC[C@H]1C(=O)N[C@H](C=O)CCCNC(=N)N)c1ccccc1` (H-[dNMePhg]-Pro-Arg-aldehyde), the IC50 in test [7] stood at 0.5 µM; in test [8] it was 12 µM; in test [3], 0.02 µM; in test [9], 2.2 µM; in test [5], 43 µM.
